Data on 1 compound can be found in paper PMC7594721, “Synthesis and biological activity of 2-cyanoacrylamide derivatives tethered to imidazopyridine as TAK1 inhibitors” (Journal of Enzyme Inhibition and Medicinal Chemistry, 2020).

“Also recorded” adds a separate entry of the source.

For orientation: IC50 means the concentration that inhibits the measured activity by half. Usually inhibition stands for the relative decrease from the control value, in per cent. A high value points to a response far below the control.

One assay has as its target T1, TAK1 (Homo sapiens, UniProt O43318).
T1 construct: purchased Invitrogen (Thermo Fisher Scientific)
T1 sequence (O43318 with tags, fused parts or gaps limits assumed): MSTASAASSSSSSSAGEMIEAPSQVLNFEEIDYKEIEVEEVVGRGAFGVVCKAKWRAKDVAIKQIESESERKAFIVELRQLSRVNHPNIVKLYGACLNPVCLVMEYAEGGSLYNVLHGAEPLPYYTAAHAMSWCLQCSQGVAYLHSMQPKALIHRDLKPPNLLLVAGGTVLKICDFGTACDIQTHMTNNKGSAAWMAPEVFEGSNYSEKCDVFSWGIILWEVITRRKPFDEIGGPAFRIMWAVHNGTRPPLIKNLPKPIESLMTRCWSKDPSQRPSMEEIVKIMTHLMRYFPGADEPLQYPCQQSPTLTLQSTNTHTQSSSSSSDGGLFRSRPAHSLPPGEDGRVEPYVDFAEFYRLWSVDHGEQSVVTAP
The experiment in a line: TAK1 LanthaScreen Eu Kinase Binding Assay (Invitrogen; Table 1 calls it TAK1 enzymatic assay). On the procedure: (§1) Kinase assays were performed by Invitrogen (now Thermo Fisher Scientific, Waltham, MA) or Reaction Biology Corp. (Malvern, PA). Inhibitory activity of compounds for TAK1 was evaluated using LanthaScreen® Eu Kinase Binding Assay (Invitrogen, Waltham, MA). The kinase profile of compound 13h was determined by the kinase HotSpot Profiling service of Reaction Biology Corporation. All assays were performed at Km for ATP.
Table 1. TAK1 enzymatic assay with imidazopyridine derivatives. ^a In-vitro enzymatic assay data obtained from Invitrogen^TM.
Background: Time-resolved FRET reads energy transfer from a long-lived donor to a nearby acceptor.

In another assay the target is T2, MEK1/MAP2K1 (Homo sapiens, UniProt Q02750).
T2 construct: purchased Reaction Biology Corp
The experiment in a line: Kinase HotSpot profiling (Reaction Biology Corp.). The conditions noted are these: ATP at Km. It counts as biochemical. On the procedure:
as §1

Another assay addresses T3, MLK1/MAP3K9 (Homo sapiens, UniProt P80192).
T3 construct: purchased Reaction Biology Corp
The experiment in a line: Kinase HotSpot profiling (Reaction Biology Corp.). It counts as biochemical. The conditions noted are these: ATP at Km. On the procedure:
as §1

The next assay deals with T4, MEK2/MAP2K2 (Homo sapiens, UniProt P36507).
T4 construct: purchased Reaction Biology Corp
The experiment in a line: Kinase HotSpot profiling (Reaction Biology Corp.). The following applies: ATP at Km. In kind it is biochemical. On the procedure: as §1

A further assay addresses T5, ZAK/MLTK (Homo sapiens, UniProt Q9NYL2).
T5 construct: purchased Reaction Biology Corp
The experiment in a line: Kinase HotSpot profiling (Reaction Biology Corp.). In kind it is biochemical. The following applies: ATP at Km. On the procedure: as §1

Another assay addresses T6, ASK1/MAP3K5 (Homo sapiens, UniProt Q99683).
T6 construct: purchased Reaction Biology Corp
T6 sequence (Q99683 1-1374): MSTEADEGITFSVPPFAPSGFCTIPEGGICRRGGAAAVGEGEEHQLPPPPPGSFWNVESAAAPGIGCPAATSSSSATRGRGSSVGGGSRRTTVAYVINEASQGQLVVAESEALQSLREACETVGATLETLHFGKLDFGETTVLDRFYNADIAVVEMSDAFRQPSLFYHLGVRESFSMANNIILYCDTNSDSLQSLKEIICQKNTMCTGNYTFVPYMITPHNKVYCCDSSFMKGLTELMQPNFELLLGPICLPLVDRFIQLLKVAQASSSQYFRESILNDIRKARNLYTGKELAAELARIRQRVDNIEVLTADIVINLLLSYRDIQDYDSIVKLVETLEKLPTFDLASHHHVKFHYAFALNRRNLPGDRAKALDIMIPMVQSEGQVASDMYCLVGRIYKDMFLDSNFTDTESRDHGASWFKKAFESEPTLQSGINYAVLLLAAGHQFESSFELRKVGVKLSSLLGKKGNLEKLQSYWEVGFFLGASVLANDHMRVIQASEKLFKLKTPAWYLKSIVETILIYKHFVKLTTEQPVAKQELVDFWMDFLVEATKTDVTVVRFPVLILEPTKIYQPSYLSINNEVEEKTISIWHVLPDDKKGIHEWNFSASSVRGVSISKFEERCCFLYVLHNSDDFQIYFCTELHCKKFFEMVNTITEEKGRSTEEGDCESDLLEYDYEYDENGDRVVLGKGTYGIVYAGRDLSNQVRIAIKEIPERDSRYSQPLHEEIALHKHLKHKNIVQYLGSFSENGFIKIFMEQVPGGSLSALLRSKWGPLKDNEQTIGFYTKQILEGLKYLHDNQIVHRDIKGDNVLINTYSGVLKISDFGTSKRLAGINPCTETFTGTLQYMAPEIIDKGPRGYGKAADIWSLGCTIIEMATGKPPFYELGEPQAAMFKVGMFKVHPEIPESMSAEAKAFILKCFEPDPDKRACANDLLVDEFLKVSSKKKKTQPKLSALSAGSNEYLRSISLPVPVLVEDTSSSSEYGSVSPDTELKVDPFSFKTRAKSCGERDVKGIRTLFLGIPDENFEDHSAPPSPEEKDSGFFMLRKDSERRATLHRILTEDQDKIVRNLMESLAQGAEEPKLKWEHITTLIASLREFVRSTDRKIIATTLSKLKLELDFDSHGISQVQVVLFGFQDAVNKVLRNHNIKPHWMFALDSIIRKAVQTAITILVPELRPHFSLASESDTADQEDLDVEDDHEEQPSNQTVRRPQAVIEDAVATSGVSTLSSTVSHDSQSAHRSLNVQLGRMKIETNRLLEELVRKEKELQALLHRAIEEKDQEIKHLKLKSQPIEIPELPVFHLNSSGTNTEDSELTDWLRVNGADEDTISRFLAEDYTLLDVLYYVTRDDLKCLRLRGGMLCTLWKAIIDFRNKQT
The experiment in a line: Kinase HotSpot profiling (Reaction Biology Corp.). It counts as biochemical. The following applies: ATP at Km. The protocol:
as §1

In another assay the target is T7, MLK2/MAP3K10 (Homo sapiens, UniProt Q02779).
T7 construct: purchased Reaction Biology Corp
The experiment in a line: Kinase HotSpot profiling (Reaction Biology Corp.). In kind it is biochemical. The conditions noted are these: ATP at Km. On the procedure: as §1

The target in a further assay is T8, MEKK2 (Homo sapiens, UniProt Q9Y2U5).
T8 construct: purchased Reaction Biology Corp
T8 sequence (Q9Y2U5 1-619): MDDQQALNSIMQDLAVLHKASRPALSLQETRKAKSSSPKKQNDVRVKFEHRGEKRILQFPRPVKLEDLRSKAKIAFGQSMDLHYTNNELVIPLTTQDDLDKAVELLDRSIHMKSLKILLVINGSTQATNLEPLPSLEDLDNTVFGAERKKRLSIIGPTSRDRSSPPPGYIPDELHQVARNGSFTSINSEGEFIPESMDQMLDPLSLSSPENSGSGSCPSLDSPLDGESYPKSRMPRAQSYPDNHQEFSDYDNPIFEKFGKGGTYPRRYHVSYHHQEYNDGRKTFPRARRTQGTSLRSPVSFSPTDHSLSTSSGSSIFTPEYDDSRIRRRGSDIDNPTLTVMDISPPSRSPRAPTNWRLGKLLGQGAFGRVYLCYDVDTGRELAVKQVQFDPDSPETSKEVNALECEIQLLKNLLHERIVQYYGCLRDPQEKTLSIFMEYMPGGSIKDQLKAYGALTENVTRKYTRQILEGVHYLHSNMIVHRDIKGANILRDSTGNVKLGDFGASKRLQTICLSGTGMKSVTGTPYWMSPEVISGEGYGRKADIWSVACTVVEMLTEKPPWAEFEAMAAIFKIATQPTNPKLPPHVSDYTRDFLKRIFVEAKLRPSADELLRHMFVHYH
The experiment in a line: Kinase HotSpot profiling (Reaction Biology Corp.). In kind it is biochemical. The conditions noted are these: ATP at Km. On the procedure:
as §1

The target in another assay is T9, MEKK1 (Homo sapiens, UniProt Q13233).
T9 construct: purchased Reaction Biology Corp
The experiment in a line: Kinase HotSpot profiling (Reaction Biology Corp.). It counts as biochemical. The following applies: ATP at Km. On the procedure: as §1

T9 sequence (Q13233 whole entry): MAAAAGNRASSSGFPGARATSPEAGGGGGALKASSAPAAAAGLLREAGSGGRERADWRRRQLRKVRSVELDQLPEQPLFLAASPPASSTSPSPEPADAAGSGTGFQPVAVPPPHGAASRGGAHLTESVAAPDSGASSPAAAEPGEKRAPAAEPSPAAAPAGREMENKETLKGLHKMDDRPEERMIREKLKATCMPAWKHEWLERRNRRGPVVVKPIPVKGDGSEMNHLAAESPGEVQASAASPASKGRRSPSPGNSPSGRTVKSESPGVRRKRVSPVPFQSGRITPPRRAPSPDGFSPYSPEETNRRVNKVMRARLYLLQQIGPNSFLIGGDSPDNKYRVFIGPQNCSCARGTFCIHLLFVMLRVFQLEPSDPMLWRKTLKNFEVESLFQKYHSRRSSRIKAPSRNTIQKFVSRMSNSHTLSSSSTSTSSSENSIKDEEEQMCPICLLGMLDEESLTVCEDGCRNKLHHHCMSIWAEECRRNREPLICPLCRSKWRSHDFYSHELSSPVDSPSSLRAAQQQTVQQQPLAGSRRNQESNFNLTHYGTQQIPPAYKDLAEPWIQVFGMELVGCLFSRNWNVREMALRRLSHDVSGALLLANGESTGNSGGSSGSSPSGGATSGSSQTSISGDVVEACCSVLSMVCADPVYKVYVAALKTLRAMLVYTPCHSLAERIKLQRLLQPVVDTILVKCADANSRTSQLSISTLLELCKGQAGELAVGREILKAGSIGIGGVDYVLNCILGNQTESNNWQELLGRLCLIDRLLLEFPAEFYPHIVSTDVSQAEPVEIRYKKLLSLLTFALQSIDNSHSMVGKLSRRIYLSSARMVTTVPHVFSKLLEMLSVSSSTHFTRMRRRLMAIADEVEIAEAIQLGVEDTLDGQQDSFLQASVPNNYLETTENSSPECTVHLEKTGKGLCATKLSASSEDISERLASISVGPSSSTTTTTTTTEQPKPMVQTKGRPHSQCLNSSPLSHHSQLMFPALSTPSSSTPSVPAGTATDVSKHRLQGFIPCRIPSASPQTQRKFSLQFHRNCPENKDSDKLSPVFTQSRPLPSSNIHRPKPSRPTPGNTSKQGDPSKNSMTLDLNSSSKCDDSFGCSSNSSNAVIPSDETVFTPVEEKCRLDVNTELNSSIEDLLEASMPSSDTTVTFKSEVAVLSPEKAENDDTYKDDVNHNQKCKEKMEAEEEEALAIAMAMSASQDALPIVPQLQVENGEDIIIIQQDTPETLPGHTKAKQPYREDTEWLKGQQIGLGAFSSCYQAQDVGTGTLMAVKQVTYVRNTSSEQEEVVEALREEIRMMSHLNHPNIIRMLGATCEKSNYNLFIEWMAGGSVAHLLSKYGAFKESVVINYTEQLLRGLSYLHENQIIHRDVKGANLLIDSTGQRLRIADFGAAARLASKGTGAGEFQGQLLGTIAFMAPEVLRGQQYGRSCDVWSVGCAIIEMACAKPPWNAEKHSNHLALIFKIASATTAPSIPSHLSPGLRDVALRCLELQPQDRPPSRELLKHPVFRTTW
T7 sequence (Q02779 whole entry): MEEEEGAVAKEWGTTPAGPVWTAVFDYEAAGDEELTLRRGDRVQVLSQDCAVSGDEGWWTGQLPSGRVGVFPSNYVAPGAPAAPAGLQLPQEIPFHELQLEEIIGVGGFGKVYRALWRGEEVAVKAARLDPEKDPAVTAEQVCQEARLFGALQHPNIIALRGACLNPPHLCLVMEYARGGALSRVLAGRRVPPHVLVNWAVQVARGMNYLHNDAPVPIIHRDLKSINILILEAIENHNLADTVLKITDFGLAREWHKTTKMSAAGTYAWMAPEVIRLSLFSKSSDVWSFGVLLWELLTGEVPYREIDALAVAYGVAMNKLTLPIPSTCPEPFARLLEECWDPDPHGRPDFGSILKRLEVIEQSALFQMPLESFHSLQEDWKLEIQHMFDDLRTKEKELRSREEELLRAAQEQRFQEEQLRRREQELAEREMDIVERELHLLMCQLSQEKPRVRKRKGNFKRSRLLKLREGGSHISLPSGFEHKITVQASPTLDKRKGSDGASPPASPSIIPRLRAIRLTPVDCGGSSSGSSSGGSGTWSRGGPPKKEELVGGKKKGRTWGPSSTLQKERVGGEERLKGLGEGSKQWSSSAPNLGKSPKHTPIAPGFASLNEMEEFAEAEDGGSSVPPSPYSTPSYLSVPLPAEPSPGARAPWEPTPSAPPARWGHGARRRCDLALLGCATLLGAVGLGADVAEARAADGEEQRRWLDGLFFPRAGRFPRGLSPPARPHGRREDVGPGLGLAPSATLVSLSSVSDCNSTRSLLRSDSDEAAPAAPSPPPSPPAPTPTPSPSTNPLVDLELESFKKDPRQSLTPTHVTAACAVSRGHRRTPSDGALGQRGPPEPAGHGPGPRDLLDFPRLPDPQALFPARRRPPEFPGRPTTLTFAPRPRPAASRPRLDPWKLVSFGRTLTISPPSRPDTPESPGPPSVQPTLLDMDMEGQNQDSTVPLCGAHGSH
T5 sequence (Q9NYL2 whole entry): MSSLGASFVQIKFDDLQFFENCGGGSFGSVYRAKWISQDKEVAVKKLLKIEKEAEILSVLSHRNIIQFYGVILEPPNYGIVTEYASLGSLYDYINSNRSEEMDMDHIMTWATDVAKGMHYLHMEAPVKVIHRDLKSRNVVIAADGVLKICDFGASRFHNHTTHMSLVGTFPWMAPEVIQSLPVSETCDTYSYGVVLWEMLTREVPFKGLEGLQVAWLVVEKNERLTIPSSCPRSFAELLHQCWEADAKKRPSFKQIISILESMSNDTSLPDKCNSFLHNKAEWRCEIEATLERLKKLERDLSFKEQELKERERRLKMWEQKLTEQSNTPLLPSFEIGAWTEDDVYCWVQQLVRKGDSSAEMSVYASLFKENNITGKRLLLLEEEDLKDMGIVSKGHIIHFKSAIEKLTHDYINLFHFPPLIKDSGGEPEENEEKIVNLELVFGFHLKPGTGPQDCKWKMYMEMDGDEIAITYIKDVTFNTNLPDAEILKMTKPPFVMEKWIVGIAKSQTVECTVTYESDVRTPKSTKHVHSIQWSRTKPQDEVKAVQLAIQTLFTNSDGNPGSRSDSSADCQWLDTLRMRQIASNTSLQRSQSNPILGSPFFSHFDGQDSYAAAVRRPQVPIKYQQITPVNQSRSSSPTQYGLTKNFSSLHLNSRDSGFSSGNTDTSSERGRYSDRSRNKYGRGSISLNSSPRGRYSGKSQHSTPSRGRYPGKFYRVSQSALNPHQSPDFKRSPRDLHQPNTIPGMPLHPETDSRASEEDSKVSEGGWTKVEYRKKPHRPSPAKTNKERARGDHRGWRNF
T2 sequence (Q02750 whole entry): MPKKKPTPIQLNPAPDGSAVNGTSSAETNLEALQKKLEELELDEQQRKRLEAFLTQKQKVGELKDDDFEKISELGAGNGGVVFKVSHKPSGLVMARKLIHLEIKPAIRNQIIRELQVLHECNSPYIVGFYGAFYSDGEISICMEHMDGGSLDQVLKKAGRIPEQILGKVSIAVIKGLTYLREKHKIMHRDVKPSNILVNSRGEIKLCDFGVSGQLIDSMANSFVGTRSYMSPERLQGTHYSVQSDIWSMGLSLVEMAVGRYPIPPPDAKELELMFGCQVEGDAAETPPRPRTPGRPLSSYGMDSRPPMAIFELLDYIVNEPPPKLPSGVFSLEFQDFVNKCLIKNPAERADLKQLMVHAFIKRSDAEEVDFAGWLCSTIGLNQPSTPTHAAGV
T3 sequence (P80192 whole entry): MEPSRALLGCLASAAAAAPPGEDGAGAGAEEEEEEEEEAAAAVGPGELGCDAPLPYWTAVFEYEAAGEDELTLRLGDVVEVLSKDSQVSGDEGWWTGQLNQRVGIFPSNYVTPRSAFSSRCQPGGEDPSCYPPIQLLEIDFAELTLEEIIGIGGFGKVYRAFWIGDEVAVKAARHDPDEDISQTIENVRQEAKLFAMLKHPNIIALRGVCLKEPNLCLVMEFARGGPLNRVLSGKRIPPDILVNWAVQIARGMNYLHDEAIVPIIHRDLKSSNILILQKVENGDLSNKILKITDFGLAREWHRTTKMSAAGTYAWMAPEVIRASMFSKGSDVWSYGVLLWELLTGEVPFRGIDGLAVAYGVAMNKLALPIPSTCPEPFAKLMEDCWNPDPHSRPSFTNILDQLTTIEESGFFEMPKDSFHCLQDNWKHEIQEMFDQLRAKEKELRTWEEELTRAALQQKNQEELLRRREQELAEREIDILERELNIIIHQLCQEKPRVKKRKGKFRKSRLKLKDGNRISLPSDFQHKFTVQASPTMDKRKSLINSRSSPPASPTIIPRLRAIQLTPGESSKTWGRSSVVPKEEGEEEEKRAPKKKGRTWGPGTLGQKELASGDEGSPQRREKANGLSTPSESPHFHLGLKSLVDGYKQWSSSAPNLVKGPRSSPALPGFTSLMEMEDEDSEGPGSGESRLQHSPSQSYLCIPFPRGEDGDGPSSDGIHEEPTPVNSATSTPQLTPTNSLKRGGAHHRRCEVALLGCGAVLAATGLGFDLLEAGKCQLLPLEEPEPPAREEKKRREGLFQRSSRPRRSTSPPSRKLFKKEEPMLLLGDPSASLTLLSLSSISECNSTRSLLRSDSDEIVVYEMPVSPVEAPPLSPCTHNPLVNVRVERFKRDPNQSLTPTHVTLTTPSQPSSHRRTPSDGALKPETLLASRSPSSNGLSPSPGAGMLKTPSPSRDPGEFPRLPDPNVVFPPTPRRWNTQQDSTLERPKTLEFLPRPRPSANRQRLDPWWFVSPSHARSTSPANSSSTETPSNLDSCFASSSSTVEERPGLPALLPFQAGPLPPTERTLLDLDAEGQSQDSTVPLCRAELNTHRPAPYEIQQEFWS

For `Cc1cccc(/C=C(\C#N)C(=O)N[C@@H]2CCN(c3c(Cl)cnc4[nH]c(-c5ccc(N6CCN(C)CC6)cc5)nc34)C2)n1` [Compound 13h, (R,E)-N-(1–(6-chloro-2–(4-(4-methylpiperazin-1-yl)phenyl)-3H-imidazo[4,5-b]pyridin-7-yl)pyrrolidin-3-yl)-2-cyano-3-(6-methylpyridin-2-yl)acrylamide], the “TAK1 potency, SAR result in words” value at TAK1 (Table 1 SAR discussion) was “maintained or improved potency; also recorded: excellent”. The half-maximal inhibitory concentration (IC50) on TAK1 (read-out: IC50 against TAK1) stood at 27 nM. The inhibition at 1 µM against MEK1/MAP2K1 is 10 ± 0.7%; against MLK1/MAP3K9, 35 ± 1.2%; against MEK2/MAP2K2, 23 ± 1.9%; on ZAK/MLTK, 29 ± 1.4%; on ASK1/MAP3K5, 4%; against MLK2/MAP3K10, 30 ± 2%. For the same compound, the inhibition at 1 µM came to 0% against MEKK2 and 12 ± 0.7% against MEKK1.
